Assay results reported in paper PMC6211257, “Synthesis and cytotoxic activities of novel copper and silver complexes of 1,3-diaryltriazene-substituted sulfonamides” (Journal of Enzyme Inhibition and Medicinal Chemistry, 2018).
Values joined by “and” are separate entries in the source; they are usually repeats but may differ in a detail not shown here. Identical values can stand only once. Like-named read-outs stand apart in the source and are kept apart here.

Key:
[1] = test system: normal prostate epithelium (PNT-1A) cells; test: MTT cytotoxicity assay, PNT-1A; type: cell-based, human; settings: 48 h
From the text: (§1) The cells studied were obtained from the American Type Culture Collection (ATCC, Manassas, VA), and included human colorectal adenocarcinoma (DLD-1), cervix carcinoma (HeLa), breast adenocarcinoma (MDA-MB-231), colon adenocarcinoma (HT-29), endometrial adenocarcinoma (ECC-1), prostate cancer (DU-145 and PC-3), normal embryonic kidney (HEK-293), normal prostate epithelium (PNT-1A), and normal retinal pigment epithelium (ARPE-19) cells. As recommended by ATCC, cells were subjected to propagation using DMEM-F12 and RPMI-1640 media, with supplements 10% fetal bovine serum, L-glutamine (2 mM), penicillin (100 U/mL) and streptomycin ([…]) in a humidified atmosphere (5% CO2) at 37 °C. When the cultures reached 70–80% confluence, the cells were harvested using 0.25% trypsin (Sigma).
(§2) Cytotoxic activities were based on the reduction of (3–(4,5-dimethylthiazol-2-yl)-2,5-diphenyltetrazolium bromide) (MTT) by mitochondrial dehydrogenase of viable cells to give a blue formazan product which can be measured spectrophotometrically by UV–Vis measurements. MTT colorimetric assays were performed using 96 well plates. The cells were seeded in a 96 well plate at concentration 5.0 × 10^4 cells/well and incubated at 37 °C for 24 h. After treatment with various concentrations of the test compound (1, 5, 10, 25, 50, 100 and 200 μM), the cells were incubated for an additional 48 h at 37 °C. After incubation, the medium was removed, and the cells in each well were incubated with 100 μL MTT solution (5 mg/mL) for 4 h at 37 °C. MTT solutions were then discarded, and 100 μL DMSO were added to dissolve insoluble formazan crystals. Optical densities were measured at 570 nm (Varioskan Flash Multimode Reader, Thermo, Waltham, MA). Data were obtained from triplicate wells. Cytotoxic effects were determined in reference to negative controls (vehicle treated cells). Cytotoxicity was expressed as the mean percentage increase relative to the unexposed control (mean ± SD). All statistical analyses were performed using SPSS package program for Windows (Version 20, Chicago, IL). Control values were set to 0% cytotoxicity. Cytotoxicity data, where appropriate, were fitted to sigmoidal curves and a four-parameter logistic model was used to calculate the IC50 values, the concentration of material causing 50% inhibition, compared to the untreated controls. 5-Fluorouracil (5-FU) was also used as a control agent[21]^,[22].

[2] = test system: prostate cancer (PC-3) cells; test: MTT cytotoxicity assay, PC-3; type: cell-based, human; settings: 48 h, means of three independent experiments
From the text: as §1, §2

[3] = test system: cervix carcinoma (HeLa) cells; test: MTT cytotoxicity assay, HeLa; type: cell-based, human; settings: for IC50: 48 h, cancer cell, MTT, means of three independent experiments
From the text: as §1, §2

[4] = test system: prostate cancer (DU-145) cells; test: MTT cytotoxicity assay, DU-145; type: cell-based, human; settings: for IC50: MTT, 48 h
From the text: as §1, §2

[5] = test system: normal retinal pigment epithelium (ARPE-19) cells; test: MTT cytotoxicity assay, ARPE-19; type: cell-based, human; settings: 48 h, means of three independent experiments
From the text: as §1, §2

[6] = test system: normal embryonic kidney (HEK-293) cells; test: MTT cytotoxicity assay, HEK-293; type: cell-based, human; settings: 48 h, means of three independent experiments
From the text: as §1, §2

[7] = test system: endometrial adenocarcinoma (ECC-1) cells; test: MTT cytotoxicity assay, ECC-1; type: cell-based, human; settings: 48 h, means of three independent experiments
From the text: as §1, §2

[8] = test system: colon adenocarcinoma (HT-29) cells; test: MTT cytotoxicity assay, HT-29; type: cell-based, human; settings: 48 h, means of three independent experiments
From the text: as §1, §2

[9] = test system: breast adenocarcinoma (MDA-MB-231) cells; test: MTT cytotoxicity assay, MDA-MB-231; type: cell-based, human; settings: 48 h, means of three independent experiments
From the text: as §1, §2

[10] = test system: human colorectal adenocarcinoma (DLD-1) cells; test: MTT cytotoxicity assay, DLD-1; type: cell-based; settings: 48 h, means of three independent experiments
From the text: as §1, §2

[11] = Homo sapiens, PNT1A, normal cell, means of three independent experiments, read-out: IC50 PNT-1A
[12] = Homo sapiens, PC-3, cancer cell
[13] = Homo sapiens, DU-145, cancer cell, means of three independent experiments, read-out: IC50 DU-145
[14] = Homo sapiens, ARPE-19, normal cell
[15] = Homo sapiens, HEK293, normal cell
[16] = Homo sapiens, ECC-1, cancer cell
[17] = Homo sapiens, HT-29, cancer cell
[18] = Homo sapiens, MDA-MB-231, cancer cell
[19] = Homo sapiens, DLD-1, cancer cell
[20] = normal cell, means of three independent experiments, read-out: IC50 PNT-1A
[21] = cancer cell, means of three independent experiments, read-out: IC50 DU-145

Row | SMILES | IC50 [1, 11] | IC50 [2, 12] | IC50 ([3]; Homo sapiens, HeLa) | IC50 [3] | IC50 [4, 13] | IC50 [5, 14] | IC50 [6, 15] | IC50 [7, 16] | IC50 [8, 17] | IC50 [9, 18] | IC50 [10, 19] | IC50 [1, 20] | IC50 [4, 21] | IC50 ([5]; normal cell) | IC50 ([6]; normal cell) | IC50 ([7]; cancer cell) | IC50 ([8]; cancer cell) | IC50 ([9]; cancer cell) | IC50 ([10]; cancer cell) | IC50 ([2]; cancer cell) | also measured
1 | O=c1[nH]cc(F)c(=O)[nH]1 [Compound 5-FU, 5-Fluorouracil, reference compound] | 142 ± 18.6 µM | 45.5 ± 4.5 µM | 19.2 µM | 19.2 ± 1.2 µM | 37.3 ± 5.8 µM | 75.3 ± 7.5 µM | 65.3 ± 8.6 µM | 30.6 ± 3.5 µM | 24.2 ± 2.4 µM | 22.4 ± 2.5 µM | 50.2 ± 21 µM |  |  |  |  |  |  |  |  |  | 
2 | NS(=O)(=O)c1cccc(N/N=N/c2ccc(F)cc2)c1 [Compound L1, 3–(3-(4-fluorophenyl)triaz-1-en-1-yl) benzenesulfonamide] | 195 ± 23.5 µM | 168 ± 18.5 µM | 179 ± 16 µM |  | 29 ± 2.9 µM | 279 ± 33.8 µM | 132 ± 16.4 µM | 239 ± 27.5 µM | 79.4 ± 15.4 µM | 104 ± 28.2 µM | 140 ± 11 µM |  |  |  |  |  |  |  |  |  | IC50 ([1]; Homo sapiens, PNT1A, unit given as M, read-out: IC50 normal prostate cells (PNT1-A)): 195 µM; IC50 ([4]; Homo sapiens, DU-145, unit given as M, read-out: IC50 prostate cancer (DU-145)): 29 µM; selectivity between prostate cancer cell line (DU-145) and normal prostate cells (PNT1-A) ([4]; from IC50 values DU-145 vs PNT1-A): high selectivity
3 | CC(=O)[O][Ag][N](N=Nc1ccc(F)cc1)c1cccc(S(N)(=O)=O)c1 [Compound L1-Ag] |  |  |  | > 300 µM |  |  |  |  |  |  |  | 210 ± 20.9 µM | 137 ± 16.5 µM | > 300 µM | > 300 µM | 207 ± 25.6 µM | 186 ± 16.5 µM | 96.8 ± 9.6 µM | 279 ± 12.9 µM |  | 
4 | CC(=O)[O][Cu-]1([O]C(C)=O)[N](c2cccc(S(N)(=O)=O)c2)N=[N+]1c1ccc(F)cc1 [Compound L1-Cu] |  |  |  | 5.02 µM and 5 µM |  |  |  |  |  |  |  | 76.5 ± 8.5 µM | 105 ± 13.5 µM | 119 ± 13.5 µM | 68.8 ± 8.7 µM | 26.2 ± 2.6 µM | 199 ± 24.3 µM | 117 ± 14.2 µM | 47.1 ± 4.7 µM | 102 ± 10.2 µM | 
5 | COc1ccc(/N=N/Nc2cccc(S(N)(=O)=O)c2)cc1 [Compound L2, 3–(3-(4-methoxyphenyl)triaz-1-en-1-yl)] | > 300 µM | 171 ± 20.5 µM | 768 ± 6.5 µM |  | 154 ± 25.6 µM | > 300 µM | 146 ± 13.4 µM | > 300 µM | 265 ± 30 µM | 144 ± 2.4 µM | 223 ± 8.3 µM |  |  |  |  |  |  |  |  |  | 
6 | COc1ccc(N=N[N]([Ag][O]C(C)=O)c2cccc(S(N)(=O)=O)c2)cc1 [Compound L2-Ag] |  |  |  | 2.8 ± 0.1 µM |  |  |  |  |  |  |  | 17.5 ± 17.5 µM | 18.6 µM | 22 ± 10.2 µM | 17.8 ± 1.7 µM | 29.1 µM | 24.9 ± 2.5 µM | 30.3 ± 3 µM | 31.6 µM | 28.2 µM | fold increased potency than the reference drug 5-FU ([3]; HeLa cells, ratio of IC50 values): 6.84 fold
7 | COc1ccc([N+]2=N[N](c3cccc(S(N)(=O)=O)c3)[Cu-]2([O]C(C)=O)[O]C(C)=O)cc1 [Compound L2-Cu] |  |  |  | 2.08 µM and 2.1 µM |  |  |  |  |  |  |  | 95.1 ± 11.1 µM | 116 ± 14.6 µM | 132 ± 15.6 µM | 159 ± 19.4 µM | 39.5 ± 2.5 µM | 94.9 ± 9.4 µM | 50 ± 2.4 µM | 42.7 ± 3.3 µM | 65.3 ± 8.5 µM | 
8 | NS(=O)(=O)c1cccc(N/N=N/c2ccc(C(=O)O)cc2)c1 [Compound L3, 4–(3–(3-sulfamoylphenyl)triaz-2-en-1-yl) benzoic acide] | > 300 µM | > 300 µM | > 300 µM |  | 186 ± 20.6 µM | > 300 µM | > 300 µM | 197 ± 23.5 µM | > 300 µM | > 300 µM | > 300 µM |  |  |  |  |  |  |  |  |  | 
9 | CC(=O)[O][Ag][N](N=Nc1ccc(C(=O)O)cc1)c1cccc(S(N)(=O)=O)c1 [Compound L3-Ag] |  |  |  | 3.4 ± 0.2 µM |  |  |  |  |  |  |  | 9.2 ± 0.9 µM | 4.8 ± 0.4 µM | 9.5 ± 0.9 µM | 9.9 ± 0.9 µM | 16.2 ± 1.6 µM | 10.1 ± 3.1 µM | 9.8 ± 0.9 µM | 3.3 ± 0.3 µM | 5.1 ± 0.5 µM | 
10 | CC(=O)[O][Cu-]1([O]C(C)=O)[N](c2cccc(S(N)(=O)=O)c2)N=[N+]1c1ccc(C(=O)O)cc1 [Compound L3-Cu] |  |  |  | 63.9 ± 4.3 µM |  |  |  |  |  |  |  | 120 ± 13.5 µM | 58.3 ± 6.4 µM | > 300 µM | 135 ± 15.6 µM | 362 ± 38.1 µM | 205 ± 20.3 µM | 48.3 ± 2.5 µM | 65.2 ± 2.5 µM | 196 ± 22.6 µM | 
11 | COc1ccc(/N=N/Nc2cccc(S(N)(=O)=O)c2)cc1OC [Compound L4, 3–(3-(3,4-dimethoxyphenyl)triaz-1-en-1-yl) benzenesulfonamide] | 237 ± 26.8 µM | 299 ± 32.3 µM | > 300 µM |  | 182 ± 23.4 µM | > 300 µM | > 300 µM | > 300 µM | > 300 µM | 155 ± 2.6 µM | > 300 µM |  |  |  |  |  |  |  |  |  | 
12 | COc1ccc(N=N[N]([Ag][O]C(C)=O)c2cccc(S(N)(=O)=O)c2)cc1OC [Compound L4-Ag] |  |  |  | 139 ± 28 µM |  |  |  |  |  |  |  | 139 ± 16.5 µM | 237 ± 28.5 µM | 285 ± 30.5 µM | 5.5 ± 0.6 µM | 104 ± 10.3 µM | 241 ± 28.5 µM | > 300 µM | 173 ± 10.3 µM | 137 ± 15.8 µM | 
13 | COc1ccc([N+]2=N[N](c3cccc(S(N)(=O)=O)c3)[Cu-]2([O]C(C)=O)[O]C(C)=O)cc1OC [Compound L4-Cu] |  |  |  | 116 ± 9.2 µM |  |  |  |  |  |  |  | 125 ± 14.8 µM | 160 ± 18 µM | 105 ± 13.5 µM | 197 ± 23.5 µM | 308 ± 34.2 µM | 199 ± 22.5 µM | 206 ± 25.1 µM | 58.4 ± 5.8 µM | 297 ± 32.4 µM | 
14 | Cc1cc(C)cc(NN=Nc2cccc(S(N)(=O)=O)c2)c1 [Compound L5, 3-(3-(3,5-dimethylphenyl)triaz-1-en-1-yl)benzenesulfonamide] | 177 ± 20.5 µM | 131 ± 12.4 µM | 65.1 ± 4.5 µM |  | 97.8 ± 9.7 µM | > 300 µM | 103 ± 10.2 µM | 132 ± 13.1 µM | 112 ± 16.5 µM | 144 ± 18.6 µM | 224 ± 12.4 µM |  |  |  |  |  |  |  |  |  | 
15 | CC(=O)[O][Ag][N](N=Nc1cc(C)cc(C)c1)c1cccc(S(N)(=O)=O)c1 [Compound L5-Ag] |  |  |  | 9.61 µM and 9.6 µM |  |  |  |  |  |  |  | 111 ± 11 µM | 100 ± 10.1 µM | 109 ± 11 µM | 30.5 ± 4.5 µM | 136 ± 13.5 µM | 162 ± 16.1 µM | 148 ± 19.5 µM | 111 ± 9 µM | 112 ± 13.4 µM | 
16 | CC(=O)[O][Cu-]1([O]C(C)=O)[N](c2cccc(S(N)(=O)=O)c2)N=[N+]1c1cc(C)cc(C)c1 [Compound L5-Cu] |  |  |  | 15.2 ± 1 µM |  |  |  |  |  |  |  | 46.4 ± 4.6 µM | 32.4 ± 3.2 µM | 84.3 ± 8.4 µM | 36.3 ± 3.6 µM | 97.6 ± 9.7 µM | 84.4 ± 8.4 µM | 26 ± 2.5 µM | 58.8 ± 3.9 µM | 79.2 ± 8.5 µM | 
